Experimental data taken from patent publication US20130065965A1, “DI(4-CHLORO-PHENYLDIGUANIDO) DERIVATIVE WHICH IS FREE OF POTENTIAL GENOTOXICITY AND A PROCESS FOR REDUCING THE RESIDUAL AMOUNT OF P-CHLOROANILINE IN SAID DI(4-CHLORO-PHENYLDIGUANIDO) DERIVATIVE” (MEDICHEM S.A., priority 2009, published 2013).
Where two headings read alike, the source gives them in different places. One block for each compound: values may come before it.

Legend:
[1] = assay type: physicochemical; conditions: for p-chloroaniline (ppm, HPLC method 1): methanol:acetic acid 8:1 (v/v), 40° C.; for p-chloroaniline (ppm, HPLC method 1), Average: methanol:acetic acid 8:1, 40° C.
Procedure: HPLCs were acquired on a Waters Alliance 2695 LC system. Column: Kromasil C18, 5 μm, 4.6×250 mm. Flow rate: 1 mL/min. Detector: UV, 254 nm. Mobile phase A: (33:9.5:57.5; v/v/v) 1-octanesulfonic acid sodium salt solution/glacial acetic acid/methanol. The 1-octanesulfonic acid sodium salt solution was prepared dissolving 1.6 g of 1-octanesulfonic acid sodium salt in 330 ml of water and adding 95 ml of glacial acetic acid and 575 ml of methanol. Mobile phase B: methanol. Gradient: 100% A (0-20 min)-85% A (40-65 min)-100% A (70-80 min). Temperature: 30° C. Sample: 10 mg/mL in mobile phase A. Injection volume: 10 μL.
Limit of detection (LOD): 3 ppm of p-chloroaniline.
Two 100 mg aliquots of a sample of chlorhexidine free of potential genotoxicity (Replicates A and B), having a content of p-chloroaniline below 40-50 ppm, a content of each of compounds of Markush formula (IV) (i.e. impurities B-G) below 0.15%, and a total impurities content below 1.5%, as measured by HPLC method 1, were dissolved in 1 mL of a mixture of methanol and acetic acid 8:1 (v/v), and each solution was stored in 5 different closed glass vials at 40° C. These vials were opened after 1, 2, 4, 14, and 25 days of storage, respectively, and the content of p-chloroaniline was measured (HPLC method 1). A linear regression line was calculated from the data obtained in Table 1 (y=2170x-356, R^2=0.991, where “y” represents the measured content of p-chloro aniline in ppm units and “x” represents the degradation time in day units; See FIG. 1).
Three 100 mg aliquots of a sample of chlorhexidine (Replicates C, D and E), having a content of p-chloroaniline of less than 40-50 ppm, a content of each of compounds of Markush formula (IV) (i.e. impurities B-G) higher than 0.15%, and a total impurities content below 2.5-3.0%, as measured by HPLC method 1, were dissolved in 1 mL of a mixture of methanol and acetic acid 8:1 (v/v), and each solution was stored in 2 different closed glass vials at 40° C. These vials were opened after 12 and 19 days of storage, respectively, and the content of p-chloroaniline was measured (HPLC method 1).

[2] = Stability study of aqueous solutions of chlorhexidine digluconate (p-chloroaniline by colorimetric method, European Pharmacopoeia 6.0); assay type: physicochemical; conditions: 20% aqueous solution; for p-chloroaniline (ppm, Colorimetry), 3 months: closed vial, protected from light
Procedure: In the U.S. Pharmacopoeia (First Supplement to the USP 33-NF 28 Reissue, USP Monographs: Chlorhexidine Gluconate Solution) it is described that the digluconate salt of chlorhexidine in aqueous solution should be preserved in tight containers, protected from light, and at controlled room temperature (i.e. about 25° C.). In this regard, the present inventors have observed that a 20% (w/v) aqueous solution of the chlorhexidine digluconate of the invention which is free of potential genotoxicity (i.e. having a content of p-chloroaniline lower than 40-50 ppm, with respect to the chlorhexidine base) can become moderately potentially genotoxic (i.e. showing a content of p-chloroaniline dramatically close to higher than 40-50 ppm) after 3 months of storage at 25° C., and highly potentially genotoxic (i.e. showing a content of p-chloroaniline much higher than 40-50 ppm) after 3 months of storage at 40° C. […] Conversely, when storing the aqueous solution of chlorhexidine digluconate of the invention at 15° C., the free-genotoxic stability (i.e. a content of p-chloroaniline lower than 40-50 ppm) is kept at low values for at least 3 months (See Example 12).
Two samples corresponding to a 20% (v/w) aqueous solution of chlorhexidine digluconate which was prepared from the chlorhexidine of Example 10, were stored in a closed vial, under different temperature conditions (i.e. 15° C., 25° C., and 40° C.) for 3 months in a closed chamber protected from light. The potentially free genotoxicity stability of the samples (i.e. the presence of p-chloroaniline) was measured by the colorimetric method described for measuring p-chloroaniline in chlorhexidine digluconate solution in European Pharmacopoeia 6.0 (page 1501).

[3] = 1 day of storage, sample with impurities B-G below 0.15%, 0.54% total impurities
[4] = 2 days of storage, sample with impurities B-G below 0.15%, 0.54% total impurities
[5] = 4 days of storage, sample with impurities B-G below 0.15%, 0.54% total impurities
[6] = 14 days of storage, sample with impurities B-G below 0.15%, 0.54% total impurities
[7] = 25 days of storage, sample with impurities B-G below 0.15%, 0.54% total impurities
[8] = 12 days of storage, sample with impurities B-G higher than 0.15%, 2.64% total impurities
[9] = 19 days of storage, sample with impurities B-G higher than 0.15%, 2.64% total impurities

- p-chloroaniline (ppm, HPLC method 1) [1, 3]: 1,556 ppm
- p-chloroaniline (ppm, HPLC method 1) [1, 4]: 3,357 ppm
- p-chloroaniline (ppm, HPLC method 1) [1, 5]: 6,284 ppm
- p-chloroaniline (ppm, HPLC method 1) [1, 6]: 33,753 ppm
- p-chloroaniline (ppm, HPLC method 1) [1, 7]: 52,561 ppm
Compound: N=C(NCCCCCCNC(=N)NC(=N)Nc1ccc(Cl)cc1)NC(=N)Nc1ccc(Cl)cc1 [Replicate A]

- p-chloroaniline (ppm, HPLC method 1) [1, 3]: 1,925 ppm
- p-chloroaniline (ppm, HPLC method 1) [1, 4]: 3,609 ppm
- p-chloroaniline (ppm, HPLC method 1) [1, 5]: 7,819 ppm
- p-chloroaniline (ppm, HPLC method 1) [1, 6]: 33,575 ppm
- p-chloroaniline (ppm, HPLC method 1) [1, 7]: 51,656 ppm
Compound: N=C(NCCCCCCNC(=N)NC(=N)Nc1ccc(Cl)cc1)NC(=N)Nc1ccc(Cl)cc1 [Replicate B]

- p-chloroaniline (ppm, HPLC method 1) [1, 8]: 33657 ppm
- p-chloroaniline (ppm, HPLC method 1) [1, 9]: 45243 ppm
Compound: N=C(NCCCCCCNC(=N)NC(=N)Nc1ccc(Cl)cc1)NC(=N)Nc1ccc(Cl)cc1 [Replicate C]

- p-chloroaniline (ppm, HPLC method 1) [1, 8]: 33153 ppm
- p-chloroaniline (ppm, HPLC method 1) [1, 9]: 46753 ppm
Compound: N=C(NCCCCCCNC(=N)NC(=N)Nc1ccc(Cl)cc1)NC(=N)Nc1ccc(Cl)cc1 [Replicate D]

- p-chloroaniline (ppm, HPLC method 1) [1, 8]: 33568 ppm
- p-chloroaniline (ppm, HPLC method 1) [1, 9]: 47577 ppm
Compound: N=C(NCCCCCCNC(=N)NC(=N)Nc1ccc(Cl)cc1)NC(=N)Nc1ccc(Cl)cc1 [Replicate E]

- p-chloroaniline, Increasing (%) ([2]; 3 months at 15° C.): 433%
- p-chloroaniline, Increasing (%) ([2]; 3 months at 25° C.): 1533%
- p-chloroaniline, Increasing (%) ([2]; 3 months at 40° C.): 4233%
- p-chloroaniline (ppm, Colorimetry), Initial ([2]; sample to be stored at 15° C.): 3 ppm
- p-chloroaniline (ppm, Colorimetry), Initial ([2]; sample to be stored at 25° C.): 3 ppm
- p-chloroaniline (ppm, Colorimetry), Initial ([2]; sample to be stored at 40° C.): 3 ppm
- p-chloroaniline (ppm, Colorimetry), 3 months ([2]; storage at 15° C.): 16 ppm
- p-chloroaniline (ppm, Colorimetry), 3 months ([2]; storage at 25° C.): 49 ppm
- p-chloroaniline (ppm, Colorimetry), 3 months ([2]; storage at 40° C.): 130 ppm
Compound: N=C(NCCCCCCNC(=N)NC(=N)Nc1ccc(Cl)cc1)NC(=N)Nc1ccc(Cl)cc1.O=C(O)[C@H](O)[C@@H](O)[C@H](O)[C@H](O)CO.O=C(O)[C@H](O)[C@@H](O)[C@H](O)[C@H](O)CO [chlorhexidine digluconate]

- linear regression line, degradation rate towards p-chloroaniline [1]: 2170x-356
- p-chloroaniline (ppm, HPLC method 1), Average ([1]; average of Replicates A and B, 1 day, 0.54% total impurities sample): 1,741 ppm
- p-chloroaniline (ppm, HPLC method 1), Average ([1]; average of Replicates A and B, 2 days, 0.54% total impurities sample): 3,483 ppm
- p-chloroaniline (ppm, HPLC method 1), Average ([1]; average of Replicates A and B, 4 days, 0.54% total impurities sample): 7,052 ppm
- p-chloroaniline (ppm, HPLC method 1), Average ([1]; average of Replicates A and B, 14 days, 0.54% total impurities sample): 33,664 ppm
- p-chloroaniline (ppm, HPLC method 1), Average ([1]; average of Replicates A and B, 25 days, 0.54% total impurities sample): 52,109 ppm
- p-chloroaniline (ppm, HPLC method 1), Average ([1]; average of Replicates C, D and E, 12 days, 2.64% total impurities sample): 33459 ppm
- p-chloroaniline (ppm, HPLC method 1), Average ([1]; average of Replicates C, D and E, 19 days, 2.64% total impurities sample): 46524 ppm
Compound: [H]/N=C(\N/C(=N/[H])NCCCCCCNC(=N)NC(=N)Nc1ccc(Cl)cc1)Nc1ccc(Cl)cc1 [chlorhexidine, 1-[amino-[6-[amino-[amino-(4-chlorophenyl)aminomethylidene]aminomethylidene]amino-hexylimino]methyl]imino-N-(4-chlorophenyl)-methanediamine]
